Data taken from patent publication US12077503B2, “Substituted cyclic amides and their use as herbicides” (FMC CORPORATION, priority 2015, dated 2024).

How the values were obtained:
Format in all cases: in vivo
[1] = tested on: ryegrass, Italian (Italian ryegrass, Lolium multiflorum); assay: Test A preemergence; settings: Lolium multiflorum, pre-emergence, 240 h; for pest or weed control at 125 g/ha: 125 g ai/ha, Preemergence, visual injury rating after approximately 10 d, read-out: Ryegrass, Italian plant response rating (0 to 100 scale, 0 is no effect, 100 is complete control); for pest or weed control at 500 g/ha: 500 g ai/ha, preemergence, visual injury rating about 10 d after treatment, 0 to 100 scale (0 no effect, 100 complete control), read-out: Ryegrass, Italian plant response rating
In short: (§1)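 Seeded soil received test chemicals as a preemergence directed spray, and seedlings at one to two leaves, 2–10 cm tall, received them postemergence, in a non-phytotoxic, surfactant-containing solvent mixture. Pots were held in a greenhouse for approximately 10 d, then rated for injury from 0, no effect, to 100, complete control.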

[2] = tested on: giant foxtail (Setaria faberii); assay: Test A preemergence; settings: Setaria faberi, pre-emergence, 240 h; for pest or weed control at 125 g/ha: 125 g ai/ha, Preemergence, visual injury rating after approximately 10 d, read-out: Foxtail, Giant plant response rating (0 to 100 scale, 0 is no effect, 100 is complete control); for pest or weed control at 500 g/ha: 500 g ai/ha, preemergence, visual injury rating about 10 d after treatment, 0 to 100 scale (0 no effect, 100 complete control), read-out: Foxtail, Giant plant response rating
In short: as §1

[3] = tested on: Kochia (Kochia scoparia); assay: Test A preemergence; settings: Bassia scoparia, pre-emergence, 240 h; for pest or weed control at 125 g/ha: 125 g ai/ha, Preemergence, visual injury rating after approximately 10 d, read-out: Kochia plant response rating (0 to 100 scale, 0 is no effect, 100 is complete control); for pest or weed control at 500 g/ha: 500 g ai/ha, preemergence, visual injury rating about 10 d after treatment, 0 to 100 scale (0 no effect, 100 complete control), read-out: Kochia plant response rating
In short: as §1

[4] = tested on: pigweed (Amaranthus retroflexus); assay: Test A preemergence; settings: Amaranthus retroflexus, pre-emergence, 240 h; for pest or weed control at 125 g/ha: 125 g ai/ha, Preemergence, visual injury rating after approximately 10 d, read-out: Pigweed plant response rating (0 to 100 scale, 0 is no effect, 100 is complete control); for pest or weed control at 500 g/ha: 500 g ai/ha, preemergence, visual injury rating about 10 d after treatment, 0 to 100 scale (0 no effect, 100 complete control), read-out: Pigweed plant response rating
[5] = tested on: ragweed (common ragweed, Ambrosia elatior); assay: Test A preemergence; settings: Ambrosia artemisiifolia, pre-emergence, 240 h; for pest or weed control at 125 g/ha: 125 g ai/ha, Preemergence, visual injury rating after approximately 10 d, read-out: Ragweed plant response rating (0 to 100 scale, 0 is no effect, 100 is complete control); for pest or weed control at 500 g/ha: 500 g ai/ha, preemergence, visual injury rating about 10 d after treatment, 0 to 100 scale (0 no effect, 100 complete control), read-out: Ragweed plant response rating
In short: as §1

[6] = tested on: barnyardgrass (Echinochloa crus-galli); assay: Test A preemergence; settings: Echinochloa crus-galli, pre-emergence, 240 h; for pest or weed control at 125 g/ha: 125 g ai/ha, Preemergence, visual injury rating after approximately 10 d, read-out: Barnyardgrass plant response rating (0 to 100 scale, 0 is no effect, 100 is complete control); for pest or weed control at 500 g/ha: 500 g ai/ha, preemergence, visual injury rating about 10 d after treatment, 0 to 100 scale (0 no effect, 100 complete control), read-out: Barnyardgrass plant response rating
In short: as §1

[7] = tested on: sedge, umbrella (small-flower umbrella sedge, Cyperus difformis); assay: Test B flooded paddy test; settings: Cyperus difformis, Flood, 250 g ai/ha; scale of 0 to 100 where 0 is no effect and 100 is complete control; read-out: Sedge, Umbrella plant response rating
In short: (§2)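 Plants at 2-leaf stage flooded to 3 cm above soil, with compounds applied directly to paddy water and that depth maintained. Plants kept in greenhouse 13–15 d. Visual rating versus controls on a 0 (no effect) to 100 (complete control) scale.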

[8] = tested on: rice (Oryra sativa); assay: Test B flooded paddy test; settings: Oryza sativa, Flood, 250 g ai/ha; scale of 0 to 100 where 0 is no effect and 100 is complete control; read-out: Rice plant response rating
In short: as §2

[9] = tested on: ducksalad (Heteranthera limosa); assay: Test B flooded paddy test; settings: Heteranthera limosa, Flood, 250 g ai/ha; scale of 0 to 100 where 0 is no effect and 100 is complete control; read-out: Ducksalad plant response rating
In short: as §2

[10] = tested on: barnyardgrass (Echinochloa crus-galli); assay: Test B flooded paddy test; settings: Echinochloa crus-galli, Flood, 250 g ai/ha; scale of 0 to 100 where 0 is no effect and 100 is complete control; read-out: Barnyardgrass plant response rating
In short: as §2

[11] = tested on: corn (Zea mays); assay: Test A postemergence; settings: Zea mays, post-emergence, 240 h, 125 g ai/ha, Postemergence; visual injury after approximately 10 d; 0 to 100 scale where 0 is no effect and 100 is complete control
In short: as §1

[12] = tested on: ryegrass, Italian (Italian ryegrass, Lolium multiflorum); assay: Test A postemergence; settings: Lolium multiflorum, post-emergence, 240 h, 125 g ai/ha, Postemergence; visual injury after approximately 10 d; 0 to 100 scale where 0 is no effect and 100 is complete control; read-out: Plant response rating, Ryegrass, Italian
In short: as §1

[13] = tested on: giant foxtail (Setaria faberii); assay: Test A postemergence; settings: Setaria faberi, post-emergence, 240 h, 125 g ai/ha, Postemergence; visual injury after approximately 10 d; 0 to 100 scale where 0 is no effect and 100 is complete control; read-out: Plant response rating, Foxtail, Giant
In short: as §1

[14] = tested on: Kochia (Kochia scoparia); assay: Test A postemergence; settings: Bassia scoparia, post-emergence, 240 h, 125 g ai/ha, Postemergence; visual injury after approximately 10 d; 0 to 100 scale where 0 is no effect and 100 is complete control; read-out: Plant response rating, Kochia
In short: as §1

[15] = tested on: pigweed (Amaranthus retroflexus); assay: Test A postemergence; settings: Amaranthus retroflexus, post-emergence, 240 h, 125 g ai/ha, Postemergence; visual injury after approximately 10 d; 0 to 100 scale where 0 is no effect and 100 is complete control; read-out: Plant response rating, Pigweed
In short: as §1

[16] = tested on: blackgrass (Alopecurus myosuroides); assay: Test A postemergence; settings: Alopecurus myosuroides, post-emergence, 240 h, 125 g ai/ha, Postemergence; visual injury after approximately 10 d; 0 to 100 scale where 0 is no effect and 100 is complete control; read-out: Plant response rating, Blackgrass
In short: as §1

[17] = tested on: ragweed (common ragweed, Ambrosia elatior); assay: Test A postemergence; settings: Ambrosia artemisiifolia, post-emergence, 240 h, 125 g ai/ha, Postemergence; visual injury after approximately 10 d; 0 to 100 scale where 0 is no effect and 100 is complete control; read-out: Plant response rating, Ragweed
In short: as §1

[18] = tested on: Galium (catchweed bedstraw, Galium aparine); assay: Test A postemergence; settings: Galium, post-emergence, 240 h, 125 g ai/ha, Postemergence; visual injury after approximately 10 d; 0 to 100 scale where 0 is no effect and 100 is complete control; read-out: Plant response rating, Galium
In short: as §1

[19] = tested on: wheat (Triticum aestivum); assay: Test A postemergence; settings: Triticum aestivum, post-emergence, 240 h, 125 g ai/ha, Postemergence; visual injury after approximately 10 d; 0 to 100 scale where 0 is no effect and 100 is complete control; read-out: Plant response rating, Wheat
In short: as §1

[20] = tested on: barnyardgrass (Echinochloa crus-galli); assay: Test A postemergence; settings: Echinochloa crus-galli, post-emergence, 240 h, 125 g ai/ha, Postemergence; visual injury after approximately 10 d; 0 to 100 scale where 0 is no effect and 100 is complete control; read-out: Plant response rating, Barnyardgrass
In short: as §1

CCOc1cccc([C@H]2CN(C)C(=O)[C@@H]2C(=O)Nc2ccc(F)cc2F)c1 [Compound 963]
90%: pest or weed control at 125 g/ha [6] | pest or weed control at 250 g/ha [9] | pest or weed control at 125 g/ha [13] | pest or weed control at 125 g/ha [20]
100%: pest or weed control at 125 g/ha [2] | pest or weed control at 500 g/ha [2] | pest or weed control at 500 g/ha [6]
40%: pest or weed control at 500 g/ha [1] | pest or weed control at 125 g/ha [3]
20%: pest or weed control at 125 g/ha [1] | pest or weed control at 125 g/ha [12] | pest or weed control at 125 g/ha [14]
65%: pest or weed control at 250 g/ha [10]
0%: pest or weed control at 125 g/ha [4] | pest or weed control at 125 g/ha [5] | pest or weed control at 500 g/ha [5] | pest or weed control at 250 g/ha [7] | pest or weed control at 250 g/ha [8] | Corn plant response rating (crop injury, 0 = no effect, 100 = complete kill) at 125 g/ha [11] | pest or weed control at 125 g/ha [15] | pest or weed control at 125 g/ha [16] | pest or weed control at 125 g/ha [17] | plant injury at 125 g/ha [19]
70%: pest or weed control at 500 g/ha [3]
30%: pest or weed control at 500 g/ha [4] | pest or weed control at 125 g/ha [18]

CC(C)COc1cccc([C@H]2CNC(=O)[C@@H]2C(=O)Nc2ccccc2F)c1 [Compound 964]
20%: pest or weed control at 500 g/ha [3]
40%: pest or weed control at 125 g/ha [18]
75%: pest or weed control at 250 g/ha [9]
30%: pest or weed control at 500 g/ha [1]
15%: pest or weed control at 250 g/ha [8]
0%: pest or weed control at 125 g/ha [1] | pest or weed control at 125 g/ha [3] | pest or weed control at 125 g/ha [4] | pest or weed control at 500 g/ha [4] | pest or weed control at 125 g/ha [5] | pest or weed control at 500 g/ha [5] | pest or weed control at 250 g/ha [7] | pest or weed control at 250 g/ha [10] | Corn plant response rating (crop injury, 0 = no effect, 100 = complete kill) at 125 g/ha [11] | pest or weed control at 125 g/ha [12] | pest or weed control at 125 g/ha [14] | pest or weed control at 125 g/ha [15] | pest or weed control at 125 g/ha [16] | pest or weed control at 125 g/ha [17] | plant injury at 125 g/ha [19]
60%: pest or weed control at 125 g/ha [13] | pest or weed control at 125 g/ha [20]
90%: pest or weed control at 125 g/ha [2] | pest or weed control at 500 g/ha [2] | pest or weed control at 125 g/ha [6] | pest or weed control at 500 g/ha [6]

Cc1ccc(NC(=O)[C@H]2C(=O)N(C)C[C@@H]2c2cc(F)cc(F)c2)cc1 [Compound 967]
80%: pest or weed control at 125 g/ha [2] | pest or weed control at 125 g/ha [6] | pest or weed control at 125 g/ha [13] | pest or weed control at 125 g/ha [20]
35%: pest or weed control at 250 g/ha [9]
0%: pest or weed control at 125 g/ha [1] | pest or weed control at 500 g/ha [1] | pest or weed control at 125 g/ha [3] | pest or weed control at 500 g/ha [3] | pest or weed control at 125 g/ha [4] | pest or weed control at 500 g/ha [4] | pest or weed control at 125 g/ha [5] | pest or weed control at 500 g/ha [5] | pest or weed control at 250 g/ha [7] | pest or weed control at 250 g/ha [8] | pest or weed control at 250 g/ha [10] | Corn plant response rating (crop injury, 0 = no effect, 100 = complete kill) at 125 g/ha [11] | pest or weed control at 125 g/ha [12] | pest or weed control at 125 g/ha [14] | pest or weed control at 125 g/ha [15] | pest or weed control at 125 g/ha [16] | pest or weed control at 125 g/ha [17] | pest or weed control at 125 g/ha [18] | plant injury at 125 g/ha [19]
90%: pest or weed control at 500 g/ha [2] | pest or weed control at 500 g/ha [6]
